# Data published in patent publication US20250170252A1, “QUINONE PROTECTED FORMS AND CONJUGATES” (CAMBRIDGE ENTERPRISE LIMITED, priority 2022, published 2025).
# Assays:
# HeLa = assay: Toxicity with/without β-glucuronidase, HeLa; format: cell-based
# Protocol: (§1) Assays assessing cytotoxicity of β-lapachone and derivatives were performed by CellTiter-Blue assay (Promega) according to the manufacturer's instructions. Briefly, adherent cancer-cell lines were plated at 20,000 cells/well in 96 well plates or suspension cell lines were plated at a concentration of 2×10^5 cells/mL in 24 well plates. Compound stocks in media were made by dilution of DMSO stocks containing the compound of interest to obtain a final in-plate DMSO concentration of only 0.1%. Incubation was performed for 48 h. Following incubation, media was replaced with media containing CellTiter-Blue (Promega) in 1:10 dilution and the plates were incubated for 1.5-4 h. The fluorescence of the plates was recorded (excitation 555 nm, emission 585 nm, MiniMax i3x Reader, Molecular Devices).
# (§2) Cell viability was calculated by division of the fluorescence intensity of treated wells by that of the calculated average fluorescence intensity of replicate negative control wells containing cells with 0.1% DMSO only. Values and reported error bars represent the mean and standard error of the mean of three triplicate repeats for each concentration tested. IC50 values were calculated using GraphPad Prism 8 software.
# (§3) The potential of compound 37a, glucuronide-PHB-BL, as a prodrug was investigated. As discussed above, at physiological pH the compound has a relatively slow-release rate. Toxicity of Gluc-PHB-BL 37a was tested against a range of cell lines with and without added β-glucuronidase. Addition of the enzyme mimics conditions of the solid tumour environment.
# HEK-293T = assay: Toxicity with/without β-glucuronidase, HEK-293T; format: cell-based
# Protocol: as §1, §2, §3
# range of cell lines = assay: Toxicity of Gluc-PHB-BL against a range of cell lines with and without added β-glucuronidase; format: cell-based
# Protocol: as §1, §2, §3
# HL-60 = assay: Toxicity with/without β-glucuronidase, HL-60; format: cell-based
# Protocol: as §1, §2, §3
# SkBr-3 = assay: Toxicity with/without β-glucuronidase, SkBr-3; format: cell-based
# Protocol: as §1, §2, §3
# [1] = Glucuronide kinetics assay (release of β-lapachone after β-glucuronide deprotection); format: physicochemical; conditions: pH 7, 37° C., after β-glucuronide deprotection; first experiments
# Protocol: (§4) Glucuronide prodrug (37a, b, c, d) was dissolved in DMSO to a concentration of 10 mM. A 100 mM stock solution of warfarin in DMSO was also prepared. To obtain deprotected para-hydroxybenzyl ketol species, the glucuronide stock solution was dissolved in PBS with 16.7% DMF to a concentration of 1.7 mM. 15 μL of a stock solution of R-glucuronidase from E. coli K-12 (Roche #03707580001, 140 U/mL) was added to 900 μL of this stock and incubated for 20 min at 37° C. 15 μL of a 100 mM stock of warfarin internal standard in DMSO was added. Reactions were then set up immediately. For a reaction, 30 μL of the amino-benzyl ketol/standard stock was added to 195 μL of citrate-phosphate buffer at the specified pH. Test samples were incubated at 37° C. with shaking. At the recorded time points, 20 μL aliquots of the reactions were analysed by HPLC (254 nm, Agilent 1260 Infinity). HPLC conditions: column Agilent InfinityLab Poroshell 120 SB—C18 2.7 μm, 50×4.6 mm; solvent system A=H2O+0.1% TFA, B=acetonitrile+0.1% TFA; flow=1 mL/min. Gradient: t=0-1 min 0% B, t=1-2 min 0-30% B, t=2-17 min 30-40% B, t=17-17.1 min 40-100% B, t=17.1-18 min 100% B, t=18-23 min 0% B. Relative peak area represents raw peak area (mAU*s) normalized to raw peak area of the warfarin internal standard. Values recorded are averages of three independent reactions and error bars display standard error of the mean. Values were fitted to first-order kinetics using GraphPad Prism 9 software. A positive control experiment was performed under identical conditions with known substrate 4-nitrophenyl-β-D-glucuronide (Sigma Aldrich) to confirm enzyme activity.
# MOLM-13 = assay: Toxicity with/without β-glucuronidase, MOLM-13; format: cell-based
# Protocol: as §1, §2, §3
# [2] = test system: Aspc-1 pancreatic cancer cell line; assay: CellTiter Glo viability assay, Aspc-1; format: cell-based
# Protocol: (§5) For CellTiter Glo viability assays, 10,000 cells per well were plated on Day 1 and were allowed to adhere to the plate surface for 24 hours. Optimized concentration ranges of prodrugs were determined and made via serial dilution. […] Cells were incubated with compound for 48 hours and viability was assessed on Day 4 using the CellTiter Glo Viability assay which measures metabolically active cells by quantifying the amount of ATP present.
# (§6) Panc-1 cells were obtained from Tony Kouzarides' lab in the Gurdon Institute at the University of Cambridge and put into culture at passage 10 containing DMEM media (Gibco) supplemented with 1% Pen-Strep antibiotic (Gibco), 1% L-glutamine, and 10% fetal bovine serum (FBS, sterile-filtered). Aspc-1 cells were bought commercially from the American Type Culture Collection (ATCC) and put into culture containing RPMI 1640 media (Gibco) supplemented with 1% Pen-Strep antibiotic (Gibco), 1% L-glutamine, and 20% fetal bovine serum (FBS, sterile-filtered). All cell lines were started at passage 10 and passaged every 3 days by centrifuging at 1000 rpm for 4 minutes.
# [3] = Stability of glucuronide prodrug to incubation at pH 7.4 at 37° C.; format: physicochemical; conditions: pH 7.4, 37° C., 6 days; no β-lapachone observed
# Protocol: An experiment testing the stability of compound 37a to incubation at pH 7.4 at 37° C. was also performed.
# β-glucuronidase = target: T1, β-glucuronidase (Escherichia coli, UniProt P05804); assay: Incubation with β-glucuronidase (sugar deprotection); format: biochemical, E. coli K-12; conditions: pH 7.4, 37° C.
# T1 construct: purchased Roche 03707580001
# T1 sequence (P05804 whole entry): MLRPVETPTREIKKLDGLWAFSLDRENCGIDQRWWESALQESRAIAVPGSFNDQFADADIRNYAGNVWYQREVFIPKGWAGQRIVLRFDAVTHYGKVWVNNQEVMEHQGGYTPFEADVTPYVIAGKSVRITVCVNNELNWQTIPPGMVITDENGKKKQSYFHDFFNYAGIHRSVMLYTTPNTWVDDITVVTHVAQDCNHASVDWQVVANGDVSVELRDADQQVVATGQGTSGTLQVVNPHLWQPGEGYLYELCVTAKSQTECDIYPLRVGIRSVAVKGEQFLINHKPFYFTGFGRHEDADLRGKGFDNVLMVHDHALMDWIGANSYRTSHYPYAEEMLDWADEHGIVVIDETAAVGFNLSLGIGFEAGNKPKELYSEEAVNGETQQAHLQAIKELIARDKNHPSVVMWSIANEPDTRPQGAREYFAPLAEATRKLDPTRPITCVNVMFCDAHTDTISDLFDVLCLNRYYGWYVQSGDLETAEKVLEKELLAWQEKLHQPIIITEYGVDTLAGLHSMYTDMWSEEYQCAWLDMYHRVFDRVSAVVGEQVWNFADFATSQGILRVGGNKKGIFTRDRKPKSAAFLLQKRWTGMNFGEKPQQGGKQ
# Protocol: as §4, with “Values were fitted to first-order kinetics using GraphPad Prism 9 software. A positive control experiment was performed under identical conditions with known substrate 4-nitrophenyl-β-D-glucuronide (Sigma Aldrich) to confirm enzyme activity.” left out
# [4] = test system: Panc-1 pancreatic cancer cell line; assay: CellTiter Glo viability assay, Panc-1; format: cell-based
# Protocol: as §5, §6
# [5] = Homo sapiens, read-out: IC50 Gluc-PHB-BL 37a
smiles,measurement,setting,value
"CC1(C)CCC2=C(O1)c1ccccc1C(O)(Cc1ccc(O[C@@H]3O[C@H](C(=O)O)[C@@H](O)[C@H](O)[C@H]3O)cc1)C2=O (stereo partly drawn) [Compound 37a, (2S,3S,4S,5R,6S)-3,4,5-trihydroxy-6-(4-((6-hydroxy-2,2-dimethyl-5-oxo-3,4,5,6-tetrahydro-2H-benzo[h]chromen-6-yl)methyl)phenoxy)tetrahydro-2H-pyran-2-carboxylic acid]",IC50 (37a)/ IC50 (1),HeLa,9.74
same,IC50,HeLa; [5],41.5 µM
same,IC50 (37a)/ IC50 (1),HEK-293T,7.18
same,IC50,HEK-293T; [5],20.9 µM
same,toxicity without added β-glucuronidase,HEK-293T; up to 100 μM,low toxicity
same,toxicity without added β-glucuronidase,"range of cell lines; concentrations up to 100 μM, apart from HEK-293T",not seen
same,times less toxic than β-lapachone 1 (comparison of estimated IC50),"range of cell lines; treated with β-glucuronidase, 48 h",3.5-9.7 times
same,IC50 (37a)/ IC50 (1),HL-60; HL-60,3.51
same,IC50,"HL-60; Homo sapiens, HL-60, read-out: IC50 Gluc-PHB-BL 37a",15.2 µM
same,IC50,"SkBr-3; Homo sapiens, SK-BR-3, read-out: IC50 Gluc-PHB-BL 37a",24 µM
same,IC50 (37a)/ IC50 (1),SkBr-3; SkBr-3,8.73
same,"release rate of β-lapachone, kobs",[1],1.09e-06 s⁻¹
same,IC50,"MOLM-13; Homo sapiens, MOLM-13, read-out: IC50 Gluc-PHB-BL 37a",78.6 µM
same,IC50 (37a)/ IC50 (1),MOLM-13; MOLM-13,6.50
same,toxicity without the β-glucuronidase enzyme,"[2]; Aspc-1, up to 100 μM",no toxicity
same,IC50,"[2]; Homo sapiens, ASPC1, 48 h",17.4 µM
same,stability to incubation,[3],completely stable
same,sugar deprotection reaction,β-glucuronidase,rapid
same,IC50,"[4]; Homo sapiens, PANC-1, 48 h",10.5 µM
same,toxicity without the β-glucuronidase enzyme,"[4]; Panc-1, up to 100 μM",no toxicity
